Test results published in US20130316958A1 (University of Southern California, priority 2010, published 2013).
Residues, ends and D or L forms follow the SMILES beside them. No end group written: not given here. *: point of attachment. Cbz = O=C(OCc1ccccc1)*; CH2F = FC*

B1: mFADD (protein, UniProt Q61160 1-205, looked up)
FAS-associated death domain …: MDPFLVLLHSLSGSLSGNDLMELKFLCRERVSKRKLERVQSGLDLFTVLLEQNDLERGHTGLLRELLASLRRHDLLQRLDDFEAGTATAAPPGEADLQVAFDIVCDNVGRDWKRLARELKVSEAKMDGIEEKYPRSLSERVRESLKVWKNAEKKNASVAGLVKALRTCRLNLVADLVEEAQESVSKSENMSPVLRDSTVSSSETP

Assays:
Assay type in all cases: cell-based
human Beclin1 = test: Beclin1 siRNA knockdown in BCBL1 cells
Experimental: (§1) All siRNAs were produced by Dharmacon Research. siRNAs specific for human Beclin1 (5′[…]3′) and a nonspecific scrambled control siRNA were transfected using DharmaFect reagent (Dharmacon) according to the manufacturer's instructions. At 48-72 hr post-transfection, cells were analyzed for autophagy. Trypan blue staining and a Beckman Coulter Z2 Particle Count and Size analyzer were used to determine cell death (as a percentage) at day 5.

[1] = system: KSHV-infected BCBL1 cells; test: Rapamycin- or zVAD-induced growth suppression and autophagic death
Experimental: (§2) The effect of vFLIP on autophagy was tested in a KSHV-infected BCBL1 cell line. TREX-BCBL-Vector and TREX-BCBL-vFLIP cells were treated with rapamycin or left untreated for 6 days in the presence of doxycycline and subjected to scanning EM, to examine the morphologies of over 100 dead cells and quantify cell death for apoptosis and autophagic death, or subjected to PI staining and cell cycle analysis.
as §1

ALL cells = test: Tumor cell viability by trypan blue exclusion, ALL cells; conditions: for anticancer activity in ALL cell lines: BV-173 and SUP-B15, FIG. 5
Experimental: (§3) Tumor cells were treated with peptides at various concentrations for 12 hours and their viability measured by trypan blue exclusion, followed by analyses using the Beckman Coulter Z2 Particle Count and Size Analyzer (BC Z2 CS Analyzer). A minimum of 100 cells per sample using triplicate samples was counted per condition per experiment.

[2] = system: KSHV-infected TREX-BCBL-Vector cells; test: GFP-LC3 puncta autophagy assessment after peptide treatment; conditions: 30 or 50 μM peptide, 12 hr
Source text: (§4) The vFLIP α2 (10 aa) and α4 (12 aa) peptides that independently bound Atg3 at high efficiency were fused with the HIV-1 TAT protein transduction domain for intracellular delivery (Gump and Dowdy (2007) Trends Mol. Med. 13:443-448) and tested for their potential effects on autophagy induction. The K-α2 and K-α4 peptides contained KSHV vFLIP aa20-29 and aa128-139 regions, respectively, as retro-inverso versions to circumvent the proteolytic degradation. Mutant peptides K-α2m and K-α4m were also included, which replaced the hydrophobic core residues of the K-α2 (L21F22L23) and K-α4 (F130L-WVY139) peptides with alanines, as well as the C-α2 and C-α4 peptides containing the cFLIPs regions aa19-28 and aa128-139, respectively. At 12 hr post-transfection with GFP-LC3, KSHV-infected TREX-BCBL-Vector and TREX-BCBL-vFLIP cells were incubated with various concentrations of the peptides or rapamycin for an additional 12 hr, followed by an assessment of the GFP-LC3 puncta and cell death. […] Peptide-treated TREX-BCBL-Vector and TREX-BCBL-vFLIP cells were subjected to immunoblotting with αLC3 and aactin.

LC3-II in BCBL1 cells = test: Immunoblotting with αLC3 of peptide-treated cells; conditions: immunoblot
Source text: as §4

[3] = system: KSHV-infected BCBL1 cells; test: Combinatory treatment with rapamycin and peptide; conditions: 25 nM rapamycin and 20 μM peptide, versus rapamycin or peptide alone
[4] = system: virus-associated or non-virus-associated lymphoma cells; test: Cell-type specificity of vFLIP peptide-induced death; conditions: 30 or 50 μM peptide overnight
Experimental: The potential cell-type specificity of the activity of the vFLIP peptides was assessed by treating virus-associated or non-virus-associated lymphoma cells with 30 or 50 μM of the K-α2 or the K-α4 peptide overnight and subsequently assessing death levels.

[5] = system: mTor kinase activity in BCBL1 cells; test: Immunoblot of p70S6K and ribosomal protein S6 phosphorylation; conditions: treated BCBL1 cells
Experimental: Levels of phosphorylation of p70S6K and ribosomal protein S6 in BCBL1 cells were evaluated by immunoblotting with α-p70S6K, aphospho-specific p70S6K, aphospho-specific S6, or αactin.

293T cells = test: Tumor cell viability, 293T cells; conditions: FIG. 7B
Experimental: as §3

HCT116 = test: Tumor cell viability, HCT116 colon cancer line; conditions: FIG. 7C
Experimental: as §3

[6] = system: human erythromyeloblastoid leukemia cells, K562; test: Tumor cell viability by trypan blue exclusion, K562; conditions: FIG. 6B
Experimental: as §3

[7] = system: human T cell lymphoblast-like cells, Jurket T; test: Tumor cell viability by trypan blue exclusion, Jurket T; conditions: FIG. 6A
Experimental: as §3

LNCap cells = test: Tumor cell viability, LNCap prostate cancer line
Experimental: as §3

TREX-BCBL cells = test: vFLIP expression in KSHV-infected BCBL1 cells: autophagy, growth suppression and death; conditions: ectopic expression in BCBL1 cells
Experimental: To investigate whether vFLIP expression suppresses autophagy in virus-infected cells, a KSHV-infected BCBL1 cell line was constructed (TREX-BCBL) in which a Flag-tagged KSHV-vFLIP gene was integrated into the chromosomal DNA under the control of a tetracycline-inducible promoter. (Nakamura et al. (2003) J. Virol. 77:4205-4220). At 12-16 hr post-transfection with GFP-LC3, TREX-BCBL-Vector and TREX-BCBL-vFLIP cells were treated with Doxycycline for 24 hr, followed by incubation with 2 μM rapamycin for an additional 12 hr. The detection of GFP-LC3 and autophagy levels was performed as described above, vFLIP expression was detected by IB with anti-Flag, and autophagosomes were visualized by scanning EM (scale bar=50 nm). Treatment of these cells with doxycycline strongly activated Flag-vFLIP expression.
as §2, §1

NIH3T3 cells = test: TNFα-induced apoptosis by PI staining and flow cytometry; conditions: CHX and TNF-α 12 hr
Source text: To determine the effects of the interactions of vFLIP with FADD, IKKαβγ, and 14-3-3σ on anti-autophagy activity, NIH3T3 cells stably expressing various vFLIP mutants were constructed: m14-3-3σ, which lacks 14-3-3σ-binding; mTRAF2, which lacks TRAF2-binding (Guasparri et al. (2006) EMBO Rep. 7:114-119); 67AAA and 58AAA, which have reduced NF-κB activation (Matta and Chaudhary (2004) Proc. Natl. Acad. Sci. USA 101:9399-9404); and mFADD, which lacks FADD-binding (Yang et al. (2005) Mol. Cell. 20:939-949). These cells were treated with either cyclohexamide (CHX) alone or CHX and TNF-α for 12 hr or with 2 μM rapamycin for 3 hr. Propidium iodide (PI) staining and flow cytometry analysis were performed to determine apoptosis levels. Alternatively, NIH3T3 cells containing vector, KSHV vFLIP, or its mutants were transfected with an NF-κB-luciferase reporter construct and a control renilla luciferase plasmid, pRL-SV40 (Promega). At 48 hr post-transfection, luciferase activity was measured with a luminometer using a dual luciferase assay kit (Promega) and normalized with renilla luciferase activity to determine transfection efficiency. GFP-LC3 puncta were detected using an inverted fluorescence microscope and the autophagy levels quantified as means (±SD) of the results from three independent experiments.

| Molecule | anticancer activity in ALL cell lines (ALL cells) | autophagy induction (GFP-LC3 puncta) [2] | amount of LC3-II (LC3-II in BCBL1 cells) | growth suppression and cell death in combination with rapamycin [3] | cell death by lymphoma cell type [4] | phosphorylation of p70S6K [5] | phosphorylation of ribosomal protein S6 [5] | further results |
| --- | --- | --- | --- | --- | --- | --- | --- | --- |
| 5′AAGAUCCUGGACCGUGUCACC3′ [Beclin1 siRNA] |  |  |  |  |  |  |  | endogenous Beclin1 expression (human Beclin1): significantly reduced endogenous Beclin1 expression; effect on rapamycin-induced autophagic death (human Beclin1; cell death at day 5): attenuated rapamycin-induced autophagic death |
| CO[C@H]1C[C@@H]2CC[C@@H](C)[C@@](O)(O2)C(=O)C(=O)N2CCCC[C@H]2C(=O)O[C@H]([C@H](C)C[C@@H]2CC[C@@H](O)[C@H](OC)C2)CC(=O)[C@H](C)/C=C(\C)[C@@H](O)[C@@H](OC)C(=O)[C@H](C)C[C@H](C)/C=C/C=C/C=C/1C [rapamycin] |  |  |  |  |  |  |  | dead cells with features characteristic of autophagic death (EM) ([1]; rapamycin, 6 days, over 100 dead cells examined): approximately 60% |
| COC(=O)CC(NC(=O)C(C)NC(=O)C(NC(=O)OCc1ccccc1)C(C)C)C(=O)CF (stereo not drawn) [zVAD, benzyloxycarbonylvalyl-alanyl-aspartic acid (O-methyl)-fluoro-methylketone] (Cbz-Val-Ala-Asp(OMe)-CH2F; configuration not given here) |  |  |  |  |  |  |  | growth suppression and cell death ([1]; BCBL1 cells): effectively induced growth suppression and death of BCBL1 cells |
| RRRQRRKKRGY-G-FVNLLFLVVE (RRRQRRKKRGYGFVNLLFLVVE; not fully specified) [K-α2, HIV-1 TAT-fused retro-inverso peptide containing KSHV vFLIP aa20-29] | significant anticancer activities | able to induce autophagy in TREX-BCBL-Vector cells as effectively as 2 μM rapamycin | A high amount of LC3-II was detected | marked increase of growth suppression and cell death | primarily targeted KSHV-infected PEL cells (BCBL1, BCP-1, and BC-3), but not KSHV/EBV-coinfected PEL cells (BC-1 and JSC-1), EBV-immortalized Bob-B cells, nor non-virus-associated lymphoma cells (BJAB, K562 and Jurkat-T) | marginal reduction | remained unaffected |  |
| RRRQRRKKRGY-G-NEMCYVWHLFTQ (RRRQRRKKRGYGNEMCYVWHLFTQ; not fully specified) [K-α4, HIV-1 TAT-fused retro-inverso peptide containing KSHV vFLIP aa128-139] | significant anticancer activities | able to induce autophagy in TREX-BCBL-Vector cells as effectively as 2 μM rapamycin | A high amount of LC3-II was detected | marked increase of growth suppression and cell death | broadly targeted most lymphoma cells, resulting in varying degrees of cell death | marginal reduction | remained unaffected | cell death in ALL cells (ALL cells; TAT linked peptide, 30 μM and 50 μM, compared to TAT alone, FIG. 1): induced cell deaths in various ALL cells; anticancer activity in 293T cells (293T cells): anticancer activities; anticancer activity in HCT116 (HCT116): anticancer activities; cell death in K562 [6]: induced cell death; cell death in Jurket T [7]: induced cell death; anticancer activity in LNCap cells (LNCap cells; FIG. 7A): anticancer activities; anticancer activity in LNCaP cells (cell count and relative luminescence) (LNCap cells; FIG. 8): confirms the anticancer activities |
| B1 |  |  |  |  |  |  |  | block of rapamycin- or zVAD-induced growth suppression and autophagic death (TREX-BCBL cells): almost completely blocked; block of TNFα-induced apoptosis (NIH3T3 cells): either poorly blocked TNFα-induced apoptosis or no longer block it at all |
